Measured values published in patent US20230414617A1, “PHARMACEUTICAL COMPOSITION COMPRISING ACID-BASE NEUTRALIZATION COMBINATION AND APPLICATION THEREOF” (CHENGDU KUACHANGAOPU MEDICAL TECHNOLOGY CO., LTD., priority 2020, published 2023).
Structures can show the parent of a compound that is named as a salt. Blank lines part the entries; values can stand above or below the molecule they belong to.

Key:
breast cancer 4T1 cells [1] = experiment: Tumor inhibition, breast cancer 4T1 transplantation tumor (Example 7); format: in vivo, BALB/c mouse; conditions: intratumoral; for Tumor weight (x ± s): 150 ul/mouse, once every 3 days x3, 5th day after end; for Tumor inhibition rate: vs negative control
Protocol: (§1) In the following examples of the present invention, the co-administration pharmaceutical efficacies of drug A and drug B combination administration was determined by ratio q of actual pharmaceutical efficacy/expected pharmaceutical efficacy according to Zhengjun JIN method, as follows.
In an experiment, the test animal was a BALB/c mouse, the modeling cells were breast cancer 4T1 cells, and the transplantation tumor was modeled at 1×10^6 cells/mouse under the skin of the animal's right axilla. […] The negative controls and study drugs were administered intraperitoneally (groups 02, 11 and 15) and intratumorally (other study groups), respectively. All groups were dosed once every 3 days, for a total of 3 times, […], with an injection volume of 150 ul/mouse. On the 5th day after the administration was ended, the animals were euthanized, and the tumor weight was measured after anatomy to the animals. The tumor inhibition rate was calculated from the negative control group.

breast cancer 4T1 cells [2] = experiment: Tumor inhibition, breast cancer 4T1 transplantation tumor (Example 6); format: in vivo, BALB/c mouse; conditions: intratumoral; for Tumor weight (x ± s): 150 μl/mouse, once every 3 days x3, 5th day after end; for Tumor inhibition rate: vs negative control
Protocol: as §1
(§2) In an experiment, the test animal was a BALB/c mouse, the modeling cells were breast cancer 4T1 cells, and the transplantation tumor was modeled at 1×10^5 cells/mouse under the skin of the animal's right axilla. Successfully modeled experimental animals (with an average tumor volume of 324 mm^3) were divided into 1 negative control group (group 0) and 9 drug study groups (groups 1-9). […] Each group was administered by intratumoral injection once every 3 days for a total of 3 times, each time at an injection dose of 150 μl/mouse. On the 5th day after the administration was ended, the animals were euthanized, and the tumor weight was measured after anatomy to the animals. The tumor inhibition rate was calculated from the negative control group.

[3] = pH of the study drug aqueous solution; format: physicochemical; conditions: aqueous solution
[4] = tested on: mouse liver cancer Hepa1-6 cells; experiment: Series B: tumor inhibition, Hepa1-6 transplantation tumor in 8-month-old mice (Example 10); format: in vivo; conditions: one intratumoral injection 100 μl/mouse; for r'3d, tumor inhibition rate (tumor volume): day 3; for r'14d, tumor inhibition rate (tumor volume): day 14
Protocol: The animals in series B were modeled in 8-month-old mice as a middle-aged and elderly patient model, which was not consistent with the commonly used young patient model in terms of tumor formation, tumor histomorphology, and body immunocompetence. […] The model animals were randomly divided into 13 groups. Each group was administered once by intratumoral injection according to the drug grouping in Table 11 with an injection volume of 100 μl/mouse.
The actual/expected ratio […] for short-term drug efficacy and the actual/expected ratio q14d for medium-term drug efficacy were calculated based on the drug efficacies (r′3d, […]) at different times (day 3, day 14), respectively.

breast cancer 4T1 cells [5] = experiment: Tumor inhibition, breast cancer 4T1 transplantation tumor (Example 8); format: in vivo, BALB/c mouse; conditions: intratumoral; for Tumor weight (x ± s): 150 μl/mouse, once every 3 days x3, 5th day after end; for Tumor inhibition rate: vs negative control
Protocol: as §1
as §2, with “336” for “324”, “16” for “9”, “1-16).” for “1-9).”

breast cancer 4T1 cells [6] = experiment: Tumor inhibition, breast cancer 4T1 transplantation tumor (Example 3); format: in vivo, BALB/c mouse; conditions: intratumoral; for Tumor weight (x ± s): 150 μl/mouse, once every 3 days x3, 5th day after end; for Tumor inhibition rate: vs negative control
Protocol: as §1
as §2, with “1×10^6” for “1×10^5”, “axilla.” for “axilla. Successfully modeled experimental animals (with an average tumor volume of 324 mm^3) were divided into 1 negative control group (group 0) and 9 drug study groups (groups 1-9).”, “determined” for “measured”

breast cancer 4T1 cells [7] = experiment: Tumor inhibition, breast cancer 4T1 transplantation tumor (Example 4); format: in vivo, BALB/c mice; conditions: intratumoral; for Tumor weight (x ± s): 150 μl/mouse, once every 3 days x3, 5th day after end; for Tumor inhibition rate: vs negative control
Protocol: as §1
In another experiment, the test animal was BALB/c mice, the modeling cells were breast cancer 4T1 cells, and the transplantation tumor was modeled at 1×10^6 cells/mouse under the skin of the animal's right axilla. Successfully modeled experimental animals (average tumor volume 307 mm^3) were randomly divided into 1 negative control group (group 0) and 13 drug study groups (groups 1-13). […] Each group was administered by intratumoral injection once every 3 days for a total of 3 times, each time at an injection dose of 150 μl/mouse. On the 5th day after the administration was ended, the animals were euthanized, and the tumor weight was measured after anatomy to the animals. The tumor inhibition rate was calculated from the negative control group.

breast cancer 4T1 cells [8] = experiment: Tumor inhibition, breast cancer 4T1 transplantation tumor (Example 5); format: in vivo, BALB/c mouse; conditions: intratumoral; for Tumor weight (x ± s): once every 3 days x3, 5th day after end; for Tumor inhibition rate: vs negative control
Protocol: as §1
as §2, with “In one” for “In an”, “at 1×10^6” for “at 1×10^5”, “axilla.” for “axilla. Successfully modeled experimental animals (with an average tumor volume of 324 mm^3) were divided into 1 negative control group (group 0) and 9 drug study groups (groups 1-9).”, “[…].” for “150 μl/mouse.”

[9] = study drugs of Example 6 (Table 8)
[10] = study drugs of Example 3 (Table 5)
[11] = study drugs of Example 4 (Table 6)
[12] = study drugs of Example 5 (Table 7)

Molecule: CN(C)c1ccc2nc3ccc(=[N+](C)C)cc-3sc2c1 [0.3% methylene blue, methylene blue]
Tumor weight (x ± s) (breast cancer 4T1 cells [1]): 2.11 ± 0.29 g
Tumor inhibition rate (breast cancer 4T1 cells [1]): 3%

Molecule: Cl [0.4% hydrochloric acid, hydrochloric acid]
Tumor weight (x ± s) (breast cancer 4T1 cells [2]): 1.65 ± 0.21 g
Tumor inhibition rate (breast cancer 4T1 cells [2]): 21%
pH [3, 9]: 0.1

Molecule: O=c1[nH]cc(F)c(=O)[nH]1 [0.25% 5-fluorouracil, 5-fluorouracil]
Tumor weight (x ± s) (breast cancer 4T1 cells [1]): 1.94 ± 0.33 g
Tumor inhibition rate (breast cancer 4T1 cells [1]): 11%

Molecule: O=c1[nH]cc(F)c(=O)[nH]1 [1% 5-fluorouracil, 5-fluorouracil]
r'3d, tumor inhibition rate (tumor volume) [4]: 26.8%
r'14d, tumor inhibition rate (tumor volume) [4]: 3.1%
Tumor weight (x ± s) (breast cancer 4T1 cells [5]): 1.10 ± 0.26 g
Tumor inhibition rate (breast cancer 4T1 cells [5]): 51%
Tumor weight (x ± s) (breast cancer 4T1 cells [1]): 1.07 ± 0.26 g
Tumor inhibition rate (breast cancer 4T1 cells [1]): 51%

Molecule: [Na+].[OH-] [1% NaOH, sodium hydroxide]
pH [3, 10]: 13.4
Tumor weight (x ± s) (breast cancer 4T1 cells [6]): 1.41 ± 0.23 g
Tumor inhibition rate (breast cancer 4T1 cells [6]): 42%

Molecule: CN(C)c1ccc2nc3ccc(=[N+](C)C)cc-3sc2c1 [1% methylene blue, methylene blue]
r'3d, tumor inhibition rate (tumor volume) [4]: 27.8%
r'14d, tumor inhibition rate (tumor volume) [4]: 16.9%
Tumor weight (x ± s) (breast cancer 4T1 cells [5]): 1.73 ± 0.23 g
Tumor inhibition rate (breast cancer 4T1 cells [5]): 23%
Tumor weight (x ± s) (breast cancer 4T1 cells [1]): 1.72 ± 0.27 g
Tumor inhibition rate (breast cancer 4T1 cells [1]): 21%

Molecule: CCN(CC)c1ccc(C(=C2C=CC(=[N+](CC)CC)C=C2)c2cc(O)c(S(=O)(=O)O)cc2S(=O)(=O)O)cc1 [1% patent blue, patent blue]
Tumor weight (x ± s) (breast cancer 4T1 cells [5]): 1.71 ± 0.25 g
Tumor inhibition rate (breast cancer 4T1 cells [5]): 24%

Molecule: [Cl-].[K+] [2% KCl, potassium chloride]
Tumor weight (x ± s) (breast cancer 4T1 cells [6]): 2.19 ± 0.31 g
Tumor inhibition rate (breast cancer 4T1 cells [6]): 11%

Molecule: O=C([O-])O.[Na+] [2% sodium bicarbonate, sodium bicarbonate]
pH [3, 11]: 8.2
Tumor weight (x ± s) (breast cancer 4T1 cells [7]): 2.10 ± 0.25 g
Tumor inhibition rate (breast cancer 4T1 cells [7]): 7%

Molecule: O=C([O-])[O-].[Na+].[Na+] [2.8% sodium carbonate, sodium carbonate]
pH [3, 11]: 10.9
Tumor weight (x ± s) (breast cancer 4T1 cells [7]): 2.10 ± 0.27 g
Tumor inhibition rate (breast cancer 4T1 cells [7]): 7%

Molecule: CC(=O)O [3% acetic acid, acetic acid]
pH [3, 12]: 2.6
Tumor weight (x ± s) (breast cancer 4T1 cells [8]): 1.85 ± 0.26 g
Tumor inhibition rate (breast cancer 4T1 cells [8]): 15%

Molecule: C=C[C@H]1C[N@@]2CC[C@H]1C[C@H]2[C@H](O)c1ccnc2ccc(OC)cc12 [3% quinine monohydrochloride, quinine monohydrochloride]
Tumor weight (x ± s) (breast cancer 4T1 cells [5]; monohydrochloride): 1.71 ± 0.26 g
Tumor inhibition rate (breast cancer 4T1 cells [5]; monohydrochloride): 24%

Molecule: Cl [3.5% hydrochloric acid, hydrochloric acid]
Tumor weight (x ± s) (breast cancer 4T1 cells [2]): 0.82 ± 0.18 g
Tumor inhibition rate (breast cancer 4T1 cells [2]): 71%
pH [3, 9]: 0.1

Molecule: O=C([O-])O.[Na+] [4% sodium bicarbonate, sodium bicarbonate]
pH [3, 10]: 8.2
pH [3, 12]: 8.2
Tumor weight (x ± s) (breast cancer 4T1 cells [6]): 1.87 ± 0.22 g
Tumor inhibition rate (breast cancer 4T1 cells [6]): 23%
Tumor weight (x ± s) (breast cancer 4T1 cells [8]): 1.68 ± 0.27 g
Tumor inhibition rate (breast cancer 4T1 cells [8]): 23%

Molecule: [Na+].[OH-] [5% NaOH, sodium hydroxide]
pH [3, 10]: 14.0
Tumor weight (x ± s) (breast cancer 4T1 cells [6]): 0.28 ± 0.12 g
Tumor inhibition rate (breast cancer 4T1 cells [6]): 72%

Molecule: Cl [5% hydrochloric acid, hydrochloric acid]
Tumor weight (x ± s) (breast cancer 4T1 cells [2]): 0.36 ± 0.14 g
Tumor inhibition rate (breast cancer 4T1 cells [2]): 83%
pH [3, 9]: 0.1

Molecule: C=C[C@H]1C[N@@]2CC[C@H]1C[C@H]2[C@H](O)c1ccnc2ccc(OC)cc12 [5% quinine dihydrochloride, quinine dihydrochloride]
Tumor weight (x ± s) (breast cancer 4T1 cells [5]; dihydrochloride): 1.46 ± 0.21 g
Tumor inhibition rate (breast cancer 4T1 cells [5]; dihydrochloride): 35%

Molecule: O=C([O-])O.[Na+] [5% sodium bicarbonate, sodium bicarbonate]
Tumor weight (x ± s) (breast cancer 4T1 cells [2]): 1.57 ± 0.20 g
Tumor inhibition rate (breast cancer 4T1 cells [2]): 25%
pH [3, 11]: 8.2
pH [3, 9]: 8.2
Tumor weight (x ± s) (breast cancer 4T1 cells [7]): 1.79 ± 0.24 g
Tumor inhibition rate (breast cancer 4T1 cells [7]): 21%

Molecule: O=C([O-])[O-].[Na+].[Na+] [7% sodium carbonate, sodium carbonate]
pH [3, 11]: 10.8
Tumor weight (x ± s) (breast cancer 4T1 cells [7]): 1.81 ± 0.21 g
Tumor inhibition rate (breast cancer 4T1 cells [7]): 20%

Molecule: CC(=O)[O-].[Na+] [10% sodium acetate, sodium acetate]
pH [3, 12]: 9.3
Tumor weight (x ± s) (breast cancer 4T1 cells [8]): 1.72 ± 0.23 g
Tumor inhibition rate (breast cancer 4T1 cells [8]): 21%

Molecule: O=C([O-])O.[Na+] [10% sodium bicarbonate, sodium bicarbonate]
pH [3, 10]: 8.1
pH [3, 11]: 8.1
Tumor weight (x ± s) (breast cancer 4T1 cells [6]): 1.65 ± 0.29 g
Tumor inhibition rate (breast cancer 4T1 cells [6]): 32%
Tumor weight (x ± s) (breast cancer 4T1 cells [7]): 1.58 ± 0.22 g
Tumor inhibition rate (breast cancer 4T1 cells [7]): 30%

Molecule: O=C([O-])[O-].[Na+].[Na+] [14% sodium carbonate, sodium carbonate]
pH [3, 11]: 10.8
Tumor weight (x ± s) (breast cancer 4T1 cells [7]): 1.47 ± 0.24 g
Tumor inhibition rate (breast cancer 4T1 cells [7]): 35%

Molecule: CC(=O)O [15% acetic acid, acetic acid]
pH [3, 12]: 2.5
Tumor weight (x ± s) (breast cancer 4T1 cells [8]): 0.70 ± 0.18 g
Tumor inhibition rate (breast cancer 4T1 cells [8]): 68%

pH [3, 12]: 6.8
pH ([3]; study drugs of Example 7 (Table 9)): 6.8
Molecule: NCC(=O)O [15% glycine, glycine]
Tumor weight (x ± s) (breast cancer 4T1 cells [1]): 1.81 ± 0.26 g
Tumor inhibition rate (breast cancer 4T1 cells [1]): 17%
Tumor weight (x ± s) (breast cancer 4T1 cells [8]): 1.81 ± 0.26 g
Tumor inhibition rate (breast cancer 4T1 cells [8]): 17%

Molecule: O=C([O-])O.[Na+] [15% sodium bicarbonate, sodium bicarbonate]
Tumor weight (x ± s) (breast cancer 4T1 cells [2]): 1.29 ± 0.24 g
Tumor inhibition rate (breast cancer 4T1 cells [2]): 38%
pH [3, 9]: 8.1

Molecule: CC(=O)O [30% acetic acid, acetic acid]
pH [3, 12]: 2.5
Tumor weight (x ± s) (breast cancer 4T1 cells [8]): 0.41 ± 0.11 g
Tumor inhibition rate (breast cancer 4T1 cells [8]): 81%

Molecule: CC(=O)[O-].[Na+] [30% sodium acetate, sodium acetate]
pH [3, 12]: 9.4
Tumor weight (x ± s) (breast cancer 4T1 cells [8]): 1.53 ± 0.21 g
Tumor inhibition rate (breast cancer 4T1 cells [8]): 30%

Molecule: dextran40 [2.5% dextran40 aqueous solution]
r'3d, tumor inhibition rate (tumor volume) [4]: 4.2%
r'14d, tumor inhibition rate (tumor volume) [4]: 5.3%

Molecule: yeast hydroxymethyl glucan
r'3d, tumor inhibition rate (tumor volume) [4]: 4.5%
r'14d, tumor inhibition rate (tumor volume) [4]: 7.8%
